Assay results reported in PubChem BioAssay (NCI).
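Exposure lasted 48 hours, with cells grown in 96-well plates and compounds tested at five concentrations. TGI is the concentration that stops growth completely.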

Experiments:
Assay in all cases: NCI tumour cell line growth inhibition, 48 h
DLD-1 colon = tested on: DLD-1 colon
LOX IMVI melanoma = tested on: LOX IMVI melanoma
K-562 leukemia = tested on: K-562 leukemia
HOP-92 NSCLC = tested on: HOP-92 NSCLC
HOP-62 NSCLC = tested on: HOP-62 NSCLC
SNB-75 CNS = tested on: SNB-75 CNS
SNB-19 CNS = tested on: SNB-19 CNS
SNB-78 CNS = tested on: SNB-78 CNS
SK-MEL-28 melanoma = tested on: SK-MEL-28 melanoma
CAKI-1 renal = tested on: CAKI-1 renal
UACC-62 melanoma = tested on: UACC-62 melanoma
TK-10 renal = tested on: TK-10 renal
NCI-H460 lung = tested on: NCI-H460 lung
U251 CNS = tested on: U251 CNS
786-0 renal = tested on: 786-0 renal
SK-MEL-2 melanoma = tested on: SK-MEL-2 melanoma
KM12 colon = tested on: KM12 colon
RPMI-8226 leukemia = tested on: RPMI-8226 leukemia
MALME-3M melanoma = tested on: MALME-3M melanoma
NCI-H23 lung = tested on: NCI-H23 lung
NCI-H522 lung = tested on: NCI-H522 lung
HCT-15 colon = tested on: HCT-15 colon
RXF 393 renal = tested on: RXF 393 renal
KM20L2 colon = tested on: KM20L2 colon
NCI-H226 lung = tested on: NCI-H226 lung
OVCAR-3 ovarian = tested on: OVCAR-3 ovarian
IGROV1 ovarian = tested on: IGROV1 ovarian
SK-MEL-5 melanoma = tested on: SK-MEL-5 melanoma
HOP-18 NSCLC = tested on: HOP-18 NSCLC
UACC-257 melanoma = tested on: UACC-257 melanoma
EKVX NSCLC = tested on: EKVX NSCLC
UO-31 renal = tested on: UO-31 renal
SK-OV-3 ovarian = tested on: SK-OV-3 ovarian
CCRF-CEM leukemia = tested on: CCRF-CEM leukemia
SF-268 CNS = tested on: SF-268 CNS
ACHN renal = tested on: ACHN renal
HCT-116 colon = tested on: HCT-116 colon
M19-MEL melanoma = tested on: M19-MEL melanoma
HCC-2998 colon = tested on: HCC-2998 colon
LXFL 529 NSCLC = tested on: LXFL 529 NSCLC
M14 melanoma = tested on: M14 melanoma
OVCAR-8 ovarian = tested on: OVCAR-8 ovarian
OVCAR-4 ovarian = tested on: OVCAR-4 ovarian
RXF-631 renal = tested on: RXF-631 renal
COLO 205 colon = tested on: COLO 205 colon
SF-295 CNS = tested on: SF-295 CNS
SN12C renal = tested on: SN12C renal
SF-539 CNS = tested on: SF-539 CNS
SR leukemia = tested on: SR leukemia
HL-60(TB) leukemia = tested on: HL-60(TB) leukemia
A549 NSCLC = tested on: A549 NSCLC
SW-620 colon = tested on: SW-620 colon
OVCAR-5 ovarian = tested on: OVCAR-5 ovarian
MOLT-4 leukemia = tested on: MOLT-4 leukemia
HT29 colon = tested on: HT29 colon
A498 renal = tested on: A498 renal
DMS 114 small cell lung = tested on: DMS 114 small cell lung
DMS 273 small cell lung = tested on: DMS 273 small cell lung
XF 498 CNS = tested on: XF 498 CNS

Measured: TGI

COc1cc2ccc3c4ccccc4cnc3c2cc1OC
not listed: A498 renal | DMS 114 small cell lung | DMS 273 small cell lung | XF 498 CNS
> 100 µM: all other assays above

CCCCC1=CSC(c2ccccc2)=C(c2ccccc2)S1
60.9 µM: HOP-92 NSCLC
not listed: HOP-62 NSCLC | CAKI-1 renal | SK-MEL-2 melanoma | MALME-3M melanoma | NCI-H522 lung | RXF 393 renal | UACC-257 melanoma | SF-268 CNS | ACHN renal | SR leukemia | HL-60(TB) leukemia | OVCAR-5 ovarian | XF 498 CNS
> 100 µM: all other assays above

CC(=O)Nc1[nH]n(C)c(=O)c1-c1nnc(C)s1
not listed: UACC-62 melanoma | HOP-18 NSCLC | M19-MEL melanoma | SF-295 CNS
> 100 µM: all other assays above

Cc1ccc(C(=O)CC2(O)C(=O)Nc3c(C)cc(Cl)cc32)cc1 (stereo not drawn)
not listed: UACC-62 melanoma | IGROV1 ovarian | HCT-116 colon | M19-MEL melanoma | SF-539 CNS | SR leukemia | A498 renal
> 100 µM: all other assays above
